According to US6632932B1, “Trisazo compound” (Orient Chemical Industries, Ltd., priority 2001, dated 2003):

Key:
[1] = Evaluation of light resistance of ink jet print (xenon fade meter); assay type: physicochemical; settings: amount of energy required for OD value (about 1.0) to decrease to 70%; ink with 6.0% by weight dye, pH 9.0-9.5 (ammonia), printed on PM Photo Paper; xenon 36 W/m^2 (300 to 400 nm), 24° C., 55% humidity
From the text: Preparation of Samples for Test:
An ink, the pH of which was adjusted between 9.0 and 9.5 with ammonia, prepared using the composition shown above was set into an ink jet printer (EM-900C manufactured by Seiko Epson Corp.). A piece of paper specially designed for ink jet (PM Photo Paper (Model: KA420PSK) manufactured by Seiko Epson Corp.) was printed with the ink, and it was used as a sample to be tested.
Light irradiation: The sample to be tested was set to a holder. Light irradiation with a xenon fade meter was carried out under the following condition:
Method for evaluation: The sample is taken out after each irradiation of an energy of 3000 kJ/m^2, and a part with an optical density (OD value) of about 1.0 is measured with a Macbeth density meter. The total amount of light irradiated at the time when the OD value has become 70% the original value is calculated.
Criterion for evaluation: The amount of energy required for the OD value to decrease to 70%.

Solubility in water = assay type: physicochemical; settings: under an ammoniacal alkaline condition
[2] = Mutagenicity test (Ames test)

Row | Evaluation of light resistance [1] | Compound | also measured
1 | ⊚ (Not less than 70,000 kJ/m^2) | Nc1c(N=Nc2ccc3cc(S(=O)(=O)O)c(N=Nc4ccccc4C(=O)O)c(O)c3c2)cc(S(=O)(=O)O)c2cc(S(=O)(=O)O)c(N=Nc3cc(C(=O)O)ccc3C(=O)O)c(O)c12 [Trisazo compound (8)] | –
2 | ⊚ (Not less than 70,000 kJ/m^2) | Nc1c(N=Nc2ccccc2C(=O)O)cc(S(=O)(=O)O)c2cc(S(=O)(=O)O)c(/N=N\c3ccc4cc(S(=O)(=O)O)c(N=Nc5ccccc5C(=O)O)c(O)c4c3)c(O)c12 [Trisazo compound (14)] | –
3 | ◯ | Nc1c(N=Nc2ccc3cc(S(=O)(=O)O)c(N=Nc4cccc(C(=O)O)c4)c(O)c3c2)cc(S(=O)(=O)O)c2cc(S(=O)(=O)O)c(N=Nc3ccccc3C(=O)O)c(O)c12 [Trisazo compound (11)] | –

Second part, the compound before the results:

Row | Compound | Evaluation of light resistance [1] | also measured
4 | CCOc1ccc(N=Nc2c(S(=O)(=O)O)cc3ccc(N=Nc4cc(S(=O)(=O)O)c5cc(S(=O)(=O)O)c(N=Nc6ccccc6C(=O)O)c(O)c5c4N)cc3c2O)cc1 [Trisazo compound (5)] | ⊚ (Not less than 70,000 kJ/m^2) | –
5 | Nc1c(N=Nc2ccc3c(O)c(N=Nc4ccccc4C(=O)O)c(S(=O)(=O)O)cc3c2)cc(S(=O)(=O)O)c2cc(S(=O)(=O)O)c(N=Nc3ccccc3C(=O)O)c(O)c12 [Trisazo compound (2)] | ⊚ (Not less than 70,000 kJ/m^2) | –
6 | COc1ccc(N=Nc2c(S(=O)(=O)O)cc3c(S(=O)(=O)O)cc(N=Nc4ccc5cc(S(=O)(=O)O)c(N=Nc6cc(Cl)ccc6C(=O)O)c(O)c5c4)c(N)c3c2O)c(S(=O)(=O)O)c1 [Trisazo compound (6)] | ◯ | –
7 | Cc1cc(-c2ccc(N=Nc3c(S(=O)(=O)O)cc4cc(S(=O)(=O)O)c(N=Nc5ccccc5)c(O)c4c3N)c(C)c2)ccc1N=Nc1ccc(N)cc1N [C. I. Direct Black 154, reference compound] | × | –
8 | Nc1c(N=Nc2ccc3cc(S(=O)(=O)O)c(N=Nc4ccccc4C(=O)O)c(O)c3c2)cc(S(=O)(=O)O)c2cc(S(=O)(=O)O)c(N=Nc3ccccc3C(=O)O)c(O)c12 [Trisazo compound (1)] | ⊚ (Not less than 70,000 kJ/m^2) | solubility in water (Solubility in water): 14%; mutagenicity test (Ames test), ratio [2]: 1.27 times; result of mutagenicity test (Ames test) [2]: negative
9 | Nc1cc(O)ccc1N=Nc1ccc(Nc2ccc(N=Nc3c(S(=O)(=O)O)cc4cc(S(=O)(=O)O)c(N=Nc5ccccc5)c(O)c4c3N)cc2S(=O)(=O)O)cc1 [C. I. Direct Black 168, reference compound] | Δ (Not less than 10,000 kJ/m^2 and less than 40,000 kJ/m^2) | –
